From publication PMC9784689, “Bioactivity Profiling of In Silico Predicted Linear Toxins from the Ants Myrmica rubra and Myrmica ruginodis” (Toxins, 2022)
Like-named read-outs stand apart in the source and are kept apart here. No end group written: not given here.

How the values were obtained:
[1] = system: Escherichia coli, Staphylococcus aureus, Staphylococcus epidermidis, Pseudomonas aeruginosa (strains 50071 and 1117), Micrococcus luteus, Listeria …; assay: Antibacterial activity, statements for the whole panel of seven strains; format: cell-based; details: 100 µM, after 48 h, MH II medium, 37 °C, OD600, triplicate
[2] = system: larvae of the greater wax moth (Galleria mellonella); assay: Insecticidal activity, injection into larvae; format: in vivo; details: G. mellonella larvae, 10 specimens; for Injected larvae surviving: injection of 5 µL of 10 mM stock in DMSO/water, at least 72 h
[3] = system: Influenza A/Hamburg/5/09 (H1N1) in MDCK II cells; format: cell-based, influenza A virus; details: 100 µM peptides, 48 h
[4] = system: Influenza B/Malaysia/2506/04 (Victoria lineage) in MDCK II cells; format: cell-based, influenza B virus; details: B/Mal, 100 µM peptides, 48 h
[5] = system: Influenza A/Hessen/1/03 (H3N2) in MDCK II cells; format: cell-based, influenza A virus; details: 100 µM peptides, 48 h
[6] = system: Influenza B/Massachusetts/71 (Yamagata lineage) in MDCK II cells; format: cell-based, influenza B virus; details: B/Mass, 100 µM peptides, 48 h
MDCK II cells = details: 48 h; for Normalized data, cell viability: MDCK II, 100 µM peptides, CellTiter-Glo, normalized to DMSO control = 100% viability

IDSDALKSLQ-NH2 (C-terminus assumed) [U-MYRTX-Mrub4a/Mrug7a]
Inhibition of bacterial growth, in words [1]: no significant inhibition of bacterial growth | Injected larvae surviving [2]: 80% | Normalized to Aprotinin =1 (protection) ([3]; replicate 1): 0.0395 | Normalized to Aprotinin =1 (protection) ([3]; replicate 2): 0.05779 | Normalized to Aprotinin =1 (protection) ([3]; replicate 3): 0.05022 | Normalized to Aprotinin =1 (protection) ([4]; replicate 1): 0.06158 | Normalized to Aprotinin =1 (protection) ([4]; replicate 2): 0.1088 | Normalized to Aprotinin =1 (protection) ([4]; replicate 3): 0.1041 | Normalized to Aprotinin =1 (protection) ([5]; replicate 1): 0.05779 | Normalized to Aprotinin =1 (protection) ([5]; replicate 2): 0.05634 | Normalized to Aprotinin =1 (protection) ([5]; replicate 3): 0.06216 | Normalized to Aprotinin =1 (protection) ([6]; replicate 1): 0.01827 | Normalized to Aprotinin =1 (protection) ([6]; replicate 2): 0.02714 | Normalized to Aprotinin =1 (protection) ([6]; replicate 3): 0.01553

IDSKAIKSLQ-NH2 (C-terminus assumed) [U-MYRTX-Mrub4b/Mrug3a]
Inhibition of bacterial growth, in words [1]: no significant inhibition of bacterial growth | Normalized to Aprotinin =1 (protection) ([3]; replicate 1): 0.02574 | Normalized to Aprotinin =1 (protection) ([3]; replicate 2): 0.02301 | Normalized to Aprotinin =1 (protection) ([3]; replicate 3): 0.02813 | Normalized to Aprotinin =1 (protection) ([4]; replicate 1): 0.05327 | Normalized to Aprotinin =1 (protection) ([4]; replicate 2): 0.08884 | Normalized to Aprotinin =1 (protection) ([4]; replicate 3): 0.1216 | Normalized to Aprotinin =1 (protection) ([5]; replicate 1): 0.06966 | Normalized to Aprotinin =1 (protection) ([5]; replicate 2): 0.08008 | Normalized to Aprotinin =1 (protection) ([5]; replicate 3): 0.07436 | Normalized to Aprotinin =1 (protection) ([6]; replicate 1): 0.03499 | Normalized to Aprotinin =1 (protection) ([6]; replicate 2): 0.02676 | Normalized to Aprotinin =1 (protection) ([6]; replicate 3): 0.02366

aprotinin [reference compound]
Normalized to Aprotinin =1 (protection) ([3]; replicate 1): 1 | Normalized to Aprotinin =1 (protection) ([3]; replicate 2): 1 | Normalized to Aprotinin =1 (protection) ([3]; replicate 3): 1 | Normalized to Aprotinin =1 (protection) ([4]; replicate 1): 1 | Normalized to Aprotinin =1 (protection) ([4]; replicate 2): 1 | Normalized to Aprotinin =1 (protection) ([4]; replicate 3): 1 | Normalized to Aprotinin =1 (protection) ([5]; replicate 1): 1 | Normalized to Aprotinin =1 (protection) ([5]; replicate 2): 1 | Normalized to Aprotinin =1 (protection) ([5]; replicate 3): 1 | Normalized to Aprotinin =1 (protection) ([6]; replicate 1): 1 | Normalized to Aprotinin =1 (protection) ([6]; replicate 2): 1 | Normalized to Aprotinin =1 (protection) ([6]; replicate 3): 1

INPKLLESL-NH2 (C-terminus assumed) [U-MYRTX-Mrug5b]
Inhibition of bacterial growth, in words [1]: no significant inhibition of bacterial growth | Injected larvae surviving [2]: 80% | Normalized to Aprotinin =1 (protection) ([3]; replicate 1): 0.02999 | Normalized to Aprotinin =1 (protection) ([3]; replicate 2): 0.0228 | Normalized to Aprotinin =1 (protection) ([3]; replicate 3): 0.007801 | Normalized to Aprotinin =1 (protection) ([4]; replicate 1): 0.03907 | Normalized to Aprotinin =1 (protection) ([4]; replicate 2): 0.06268 | Normalized to Aprotinin =1 (protection) ([4]; replicate 3): 0.0833 | Normalized to Aprotinin =1 (protection) ([5]; replicate 1): 0.06533 | Normalized to Aprotinin =1 (protection) ([5]; replicate 2): 0.04634 | Normalized to Aprotinin =1 (protection) ([5]; replicate 3): 0.07887 | Normalized to Aprotinin =1 (protection) ([6]; replicate 1): 0.0139 | Normalized to Aprotinin =1 (protection) ([6]; replicate 2): 0.008064 | Normalized to Aprotinin =1 (protection) ([6]; replicate 3): 0.0246

CCO [ethanol, reference compound]
Larvae killed (mortality) ([2]; injection (peptides 5 µL of 10 mM stock; ethanol control 10 µL), 72 h): 70%

IDRSEKTERE-NH2 (C-terminus assumed) [U-MYRTX-Mrub3a]
Inhibition of bacterial growth, in words [1]: no significant inhibition of bacterial growth | Normalized to Aprotinin =1 (protection) ([3]; replicate 1): 0.05191 | Normalized to Aprotinin =1 (protection) ([3]; replicate 2): 0.05042 | Normalized to Aprotinin =1 (protection) ([3]; replicate 3): 0.0422 | Normalized to Aprotinin =1 (protection) ([4]; replicate 1): 0.04706 | Normalized to Aprotinin =1 (protection) ([4]; replicate 2): 0.1383 | Normalized to Aprotinin =1 (protection) ([4]; replicate 3): 0.1034 | Normalized to Aprotinin =1 (protection) ([5]; replicate 1): 0.1064 | Normalized to Aprotinin =1 (protection) ([5]; replicate 2): 0.05676 | Normalized to Aprotinin =1 (protection) ([5]; replicate 3): 0.1027 | Normalized to Aprotinin =1 (protection) ([6]; replicate 1): 0.02341 | Normalized to Aprotinin =1 (protection) ([6]; replicate 2): 0.02308 | Normalized to Aprotinin =1 (protection) ([6]; replicate 3): 0.03331

C[C@H](CCC(=O)O)C[C@H](C)C[C@H](C)C(=O)/C=C(\O)[C@H](C)C[C@H](C)C/C=C/[C@@H](C)[C@@H](O)[C@@H](C)[C@@H](O)C[C@@H]1CC[C@@](C)([C@H]2CC[C@@](C)([C@@H](C)O)O2)O1 [Ionomycin, ionomycin, reference compound]
Cytotoxicity (cell viability), in words (MDCK II cells; MDCK II cells, 100 µM, 1% DMSO, CellTiter-Glo luminescence, triplicate): high cytotoxicity | Normalized data, cell viability (MDCK II cells; replicate 1): 0.2057% | Normalized data, cell viability (MDCK II cells; replicate 2): 0.1877% | Normalized data, cell viability (MDCK II cells; replicate 3): 0.1629%

IDPKVLESLA-NH2 (C-terminus assumed) [U-MYRTX-Mrug2a]
Inhibition of bacterial growth, in words [1]: no significant inhibition of bacterial growth | Normalized to Aprotinin =1 (protection) ([3]; replicate 1): -0.00333 | Normalized to Aprotinin =1 (protection) ([3]; replicate 2): 0.002305 | Normalized to Aprotinin =1 (protection) ([3]; replicate 3): -0.007789 | Normalized to Aprotinin =1 (protection) ([4]; replicate 1): 0.03996 | Normalized to Aprotinin =1 (protection) ([4]; replicate 2): 0.0417 | Normalized to Aprotinin =1 (protection) ([4]; replicate 3): 0.07904 | Normalized to Aprotinin =1 (protection) ([5]; replicate 1): 0.06351 | Normalized to Aprotinin =1 (protection) ([5]; replicate 2): 0.02791 | Normalized to Aprotinin =1 (protection) ([5]; replicate 3): 0.04387 | Normalized to Aprotinin =1 (protection) ([6]; replicate 1): 0.01558 | Normalized to Aprotinin =1 (protection) ([6]; replicate 2): 0.02606 | Normalized to Aprotinin =1 (protection) ([6]; replicate 3): 0.02908

IDPKLLESLA-NH2 (C-terminus assumed) [U-MYRTX-Mrub2a]
Inhibition of bacterial growth, in words [1]: no significant inhibition of bacterial growth | Normalized to Aprotinin =1 (protection) ([3]; replicate 1): 0.07403 | Normalized to Aprotinin =1 (protection) ([3]; replicate 2): 0.07306 | Normalized to Aprotinin =1 (protection) ([3]; replicate 3): 0.0814 | Normalized to Aprotinin =1 (protection) ([4]; replicate 1): 0.08852 | Normalized to Aprotinin =1 (protection) ([4]; replicate 2): 0.1729 | Normalized to Aprotinin =1 (protection) ([4]; replicate 3): 0.1453 | Normalized to Aprotinin =1 (protection) ([5]; replicate 1): 0.09958 | Normalized to Aprotinin =1 (protection) ([5]; replicate 2): 0.07892 | Normalized to Aprotinin =1 (protection) ([5]; replicate 3): 0.1212 | Normalized to Aprotinin =1 (protection) ([6]; replicate 1): 0.008341 | Normalized to Aprotinin =1 (protection) ([6]; replicate 2): 0.1091 | Normalized to Aprotinin =1 (protection) ([6]; replicate 3): 0.1749

IDPKVLESLL-NH2 (C-terminus assumed) [U-MYRTX-Mrug2b]
Inhibition of bacterial growth, in words [1]: no significant inhibition of bacterial growth | Injected larvae surviving [2]: 80% | Normalized to Aprotinin =1 (protection) ([3]; replicate 1): 0.05063 | Normalized to Aprotinin =1 (protection) ([3]; replicate 2): 0.0441 | Normalized to Aprotinin =1 (protection) ([3]; replicate 3): 0.04545 | Normalized to Aprotinin =1 (protection) ([4]; replicate 1): 0.03893 | Normalized to Aprotinin =1 (protection) ([4]; replicate 2): 0.02764 | Normalized to Aprotinin =1 (protection) ([4]; replicate 3): 0.1043 | Normalized to Aprotinin =1 (protection) ([5]; replicate 1): 0.0328 | Normalized to Aprotinin =1 (protection) ([5]; replicate 2): 0.05462 | Normalized to Aprotinin =1 (protection) ([5]; replicate 3): 0.05537 | Normalized to Aprotinin =1 (protection) ([6]; replicate 1): 0.01653 | Normalized to Aprotinin =1 (protection) ([6]; replicate 2): 0.01885 | Normalized to Aprotinin =1 (protection) ([6]; replicate 3): 0.02698

IDVYFILHLP-NH2 (C-terminus assumed) [U-MYRTX-Mrug4b]
Normalized to Aprotinin =1 (protection) ([3]; replicate 1): -0.007928 | Normalized to Aprotinin =1 (protection) ([3]; replicate 3): 0.0256 | Normalized to Aprotinin =1 (protection) ([4]; replicate 1): 0.03762 | Normalized to Aprotinin =1 (protection) ([4]; replicate 2): 0.02626 | Normalized to Aprotinin =1 (protection) ([4]; replicate 3): 0.09882 | Normalized to Aprotinin =1 (protection) ([5]; replicate 1): 0.06728 | Normalized to Aprotinin =1 (protection) ([5]; replicate 2): 0.05537 | Normalized to Aprotinin =1 (protection) ([5]; replicate 3): 0.07138 | Normalized to Aprotinin =1 (protection) ([6]; replicate 1): 0.01102 | Normalized to Aprotinin =1 (protection) ([6]; replicate 2): 0.01257 | Normalized to Aprotinin =1 (protection) ([6]; replicate 3): 0.01675

KDSDSLKSFQ-NH2 (C-terminus assumed) [U-MYRTX-Mrug6a]
Inhibition of bacterial growth, in words [1]: no significant inhibition of bacterial growth | Normalized to Aprotinin =1 (protection) ([3]; replicate 1): 0.02785 | Normalized to Aprotinin =1 (protection) ([3]; replicate 2): 0.0161 | Normalized to Aprotinin =1 (protection) ([3]; replicate 3): 0.02305 | Normalized to Aprotinin =1 (protection) ([4]; replicate 1): 0.0613 | Normalized to Aprotinin =1 (protection) ([4]; replicate 2): 0.07745 | Normalized to Aprotinin =1 (protection) ([4]; replicate 3): 0.114 | Normalized to Aprotinin =1 (protection) ([5]; replicate 1): 0.08543 | Normalized to Aprotinin =1 (protection) ([5]; replicate 2): 0.06156 | Normalized to Aprotinin =1 (protection) ([5]; replicate 3): 0.07217 | Normalized to Aprotinin =1 (protection) ([6]; replicate 1): 0.007926 | Normalized to Aprotinin =1 (protection) ([6]; replicate 2): 0.0129 | Normalized to Aprotinin =1 (protection) ([6]; replicate 3): 0.01821
